In US7763626B2, “Compositions and method for enhancing the therapeutic activity of opiods in treatment of pain” (Trustees of Dartmouth College, priority 2004, dated 2010):

How the values were obtained:
Format in all cases: in vivo, rat
Male Sprague-Dawley rats [1] = experiment: Hot water tail-flick test, morphine withdrawal-induced thermal hyperalgesia
Experimental: (§1) Male Sprague-Dawley rats (175-200 grams, Harlan, Indianapolis, Ind.) were divided into two groups (n=8 per group). Rats received subcutaneous injections of either saline or morphine (10 mg/kg; Sigma, St. Louis, Mo.) twice daily at 0800 to 0900 and 1600-1700 hour for 5 days in order to induce opioid tolerance. Chronic morphine withdrawal-induced hyperalgesia and allodynia were assessed in the animals 16 hours after the last injection of morphine. Following the recording of morphine withdrawal-induced hyperalgesia and allodynia, animals were treated with morphine (5 microgram) acutely via lumbar intrathecal injection to study the expression of morphine tolerance. Acute analgesic activity or intrathecal morphine in morphine-tolerant and chronic aline-treated rats were evaluated by mechanical (Analgesy-Meter) and thermal (tail-flick) test paradigms. Behaviors recorded prior to the acute administration of intrathecal morphine served as the basal latency measures.
(§2) With an understanding of the effects of morphine alone, separate groups of rats (n=8) received with saline or morphine (10 mg/kg subcutaneously, twice daily for 5 days) and also received once daily injections (at 1100 to 1200 hour) of propentofylline (1 and 10 micrograms) or saline via direct lumbar puncture during the induction of morphine tolerance. Again, chronic morphine withdrawal-induced hyperalgesia and allodynia were assessed in the animals 16 hours after the last subcutaneous morphine injection. Following the recording of morphine withdrawal-induced hyperalgesia and allodynia, animals were treated with morphine (5 micrograms) acutely via lumbar puncture to study the expression of morphine tolerance. As before, the acute analgesic activity of intrathecal morphine in morphine-tolerant and saline-injected rats was evaluated by mechanical (Analgesy-Meter) and thermal (tail-flick) test paradigms. Behavior recorded prior to the acute administration of intrathecal morphine served as the basal latency.
Thermal nociceptive thresholds were evaluated by the hot water tail-flick test that has been described previously (Bian, D. et al. 1999. Brain Res. 831:55-63). The test consisted of immersing the tail of the rats in water maintained at 49° C. and then recording the latency to a rapid flick. A 15 second cut-off time was used. Again, the total number of responses elicited during three successive trials separated by at least 10 minutes was recorded and then expressed as the % maximal possible effect. The tester was again blinded to the test groups.

Male Sprague-Dawley rats [2] = experiment: Paw pressure test (Analgesy-Meter), morphine withdrawal-induced mechanical hyperalgesia
Experimental: as §1, §2
(§3) In blinded testing, rats were subjected to sequential series of 10 tactile stimulations to the dorsal surface of the ipsilateral hindpaw using […] von Frey filaments (Stoelting Co., WoodDale, Ill.) sequentially. The number of foot withdrawals to this normally non-noxious stimulus determined mechanical allodynia. Mechanical sensitivity was assessed by recording the total number of responses elicited during three successive trials separated by at least 10 minutes. The pressure required to elicit paw withdrawal, the paw pressure threshold was determined.

Male Sprague-Dawley rats [3] = experiment: Mechanical allodynia (von Frey filaments), morphine withdrawal
Experimental: as §1, §2
Mechanical sensitivity was measured as the frequency of foot withdrawals elicited by a defined mechanical stimulus. Each rat, under unrestrained conditions, was placed beneath an inverted, ventilated Plexiglas cage upon an elevated aluminum screen surface with 1 cm mesh openings. Animals had been previously acclimated to the environment and the experimenter.
as §3

Male Sprague-Dawley rats [4] = experiment: Morphine tolerance model, acute intrathecal morphine evaluated by thermal and mechanical test paradigms; conditions: chronic subcutaneous morphine 10 mg/kg twice daily for 5 days; noxious thermal and mechanical testing paradigms
Experimental: as §1
as §2, with “Following the recording of morphine withdrawal-induced hyperalgesia and allodynia, animals were treated with morphine (5 micrograms) acutely via lumbar puncture to study the expression of morphine tolerance.” left out
as §3
Thermal nociceptive thresholds were evaluated by the hot water tail-flick test that has been described previously (Bian, D. et al. 1999. Brain Res. 831:55-63). […] Again, the total number of responses elicited during three successive trials separated by at least 10 minutes was recorded and then expressed as the % maximal possible effect. […]

Mac-1 mRNA = experiment: Real-time PCR of Mac-1 mRNA at L5 lumbar spinal cord; conditions: compared to saline-treated controls; morphine 10 mg/kg twice daily 5 days, or propentofylline 10 micrograms intrathecally 5 days in saline-treated rats
Experimental: (§4) Total RNA was treated with DNase I (Ambion, Austin, Tex.) to remove DNA contamination before cDNA synthesis. The reverse transcription (RT) was carried out in a 100 μl total reaction volume containing RT buffer, dNTPs, multiscribe reverse transcriptase, RNase-free water and 10 μg of DNase-treated total RNA. The RT reaction was carried out at 25° C. for 10 minutes, 37° C. for 120 minutes, and 95° C. for 5 minutes. Real-time PCR analysis was performed using gene-specific primers and probes that were designed and blasted against GENBANK to confirm their species and gene specificity. […] The real-time PCR reactions were carried out using Platinum Taq DNA polymerase, 20 mM Tris HCl (pH 8.4), 50 mM KCl, 3 mM MgCl2, 200 μM dGTP, dCTP, and dATP, 400 μM of dUTP and 1 U uracyl DNA glycosylase (UDG), 900 nM forward and reverse primers, 300 nM TaqMan probe, and 10-fold dilution of cDNA (50 ng) from the RT step. Primers and probes for glyceraldehyde-3-phosphate (GADPH), GFAP and Mac-1 were obtained form Applied Biosystems (LaJolla, Calif.). The relative standard curves generated by plotting the threshold value versus the log of the amount of total cDNA added to the reaction (1-10000 pg) were used to compare the relative amount of target genes from control and chronic morphine-treated animals.

GFAP mRNA = experiment: Real-time PCR of GFAP mRNA at L5 lumbar spinal cord; conditions: compared to saline-treated controls; morphine 10 mg/kg twice daily 5 days, or propentofylline 10 micrograms intrathecally 5 days in saline-treated rats
Experimental: as §4

IL-1β mRNA = experiment: RNase protection assay, cytokine mRNA at L5 lumbar spinal cord; conditions: ratio of expression compared with saline-treated animals (=1), propentofylline 10 μg intrathecally 5 days, morphine 10 mg/kg twice daily 5 days
Experimental: (§6) After behavioral testing for reactions to the combined treatment, rats were sacrificed and decapitated. An 18-gauge needle was inserted into the caudal end of the vertebral column and the spinal cord was expelled with ice-cold phosphate-buffered saline. The spinal cord was frozen immediately on dry ice and stored at −80° C. until homogenization. The L5 lumbar spinal cord was isolated from the intact frozen cord at the time of mRNA and protein quantification. Total RNA was isolated from the L5 spinal cord by the TRIzol extraction method (Invitrogen Corporation, Carlsbad, Calif).
(§7) Assessment of the temporal cytokine mRNA expression in the L5 lumber spinal cord was performed using a Ribonuclease Protection Assay technique. A Multiprobe RPAse kit was used (Pharmingen, San Diego, Calif.). Total RNA (15 μg) was hybridized to ^32P-labeled antisense RNA probes transcribed using the rat cytokine-1 (rCK-1) multiprobe template set resulting in double-stranded target RNA. After Rnase digestion, protected RNA and probe were resolved on a denaturing polyacrylamide gel and visualized by overnight autoradiography. Quantitative image analysis was employed to compare mRNA levels based on band intensities for each cytokine. The intensity of each band was measured using image analysis software and assigned an arbitrary unit based on the measured intensity levels. The value for the normalized quantity for each band was obtained by dividing by the L32 house-keeping gene control. Individual mRNA concentration was calculated as the ratio of the expression compared with saline-treated animals in which normal values were weighted as 1.

IL-6 mRNA = experiment: as above; conditions: ratio of expression compared with saline-treated animals (=1), propentofylline 10 μg intrathecally 5 days, morphine 10 mg/kg twice daily 5 days
Experimental: as §6, §7

IL-1β protein = experiment: Cytokine protein estimation by ELISA at L5 spinal cord; conditions: ELISA, propentofylline 10 μg intrathecally 5 days, morphine 10 mg/kg twice daily 5 days
Experimental: (§5) Quantitative determination of IL-1β, TNF-α and IL-6 protein was performed on the L5 spinal cord of the rats. […] Briefly, weighed sections of L5 spinal cord were homogenized in a homogenization buffer consisting of a protease inhibitor using the a Power Gen 125 tissue tearer (Fisher Scientific, Suwanee, Ga.). Samples were spun at 20,000×g for 30 minutes at 4° C. Supernatant was aliquoted and stored at −80° C. for future protein quantification. IL-1β and TNF-α (R&D Systems, Minneapolis, Minn.) and IL-6 (Biosource, Camarillo, Calif.) protein concentrations were determined utilizing the quantitative sandwich enzyme immunoassay.

IL-6 protein = experiment: as above; conditions: ELISA, propentofylline 10 μg intrathecally 5 days, morphine 10 mg/kg twice daily 5 days
Experimental: as §5

TNF-α protein = experiment: as above; conditions: ELISA, propentofylline 10 μg intrathecally 5 days, morphine 10 mg/kg twice daily 5 days
Experimental: as §5

[5] = 16 hours after last injection, morphine 10 mg/kg s.c. twice daily 5 days and/or propentofylline 10 micrograms intrathecally once daily 5 days
[6] = 16 hours after last morphine injection (10 mg/kg s.c. twice daily 5 days), propentofylline 1 and 10 micrograms intrathecally for 5 days during induction of tolerance

SMILES: CN1CC[C@]23c4c5ccc(O)c4O[C@H]2[C@@H](O)C=C[C@H]3[C@H]1C5 [morphine]
- Tail-flick latency (Male Sprague-Dawley rats [1]; [5]): 3.7 ± 0.2 s
- morphine withdrawal-induced noxious thermal hyperalgesia (Male Sprague-Dawley rats [1]; [6]): led to withdrawal-induced thermal and mechanical hyperalgesia
- Paw pressure latency (Male Sprague-Dawley rats [2]; [5]): 69.8 ± 4.8 grams
- morphine withdrawal-induced mechanical hyperalgesia (Male Sprague-Dawley rats [2]; [6]): led to withdrawal-induced thermal and mechanical hyperalgesia
- morphine withdrawal-induced mechanical allodynia (Male Sprague-Dawley rats [3]; [6]): led to withdrawal-induced thermal and mechanical hyperalgesia and mechanical allodynia
- Mechanical allodynia (2 grams) (Male Sprague-Dawley rats [3]; number of foot withdrawals, 2 grams von Frey filament, morphine 10 mg/kg s.c. twice daily 5 days and/or propentofylline 10 micrograms intrathecally): 3.9 ± 0.5
- Mechanical allodynia (12 grams) (Male Sprague-Dawley rats [3]; number of foot withdrawals, 12 grams von Frey filament, morphine 10 mg/kg s.c. twice daily 5 days and/or propentofylline 10 micrograms intrathecally): 6.9 ± 0.7
- anti-nociceptive tolerance to acute intrathecal morphine (5 micrograms) (Male Sprague-Dawley rats [4]): demonstrated anti-nociceptive tolerance
- Mac-1 mRNA levels at the L5 lumbar spinal cord (Mac-1 mRNA): significant increases
- GFAP mRNA levels at the L5 lumbar spinal cord (GFAP mRNA): significant increases
- IL-1β mRNA at the L5 lumbar spinal cord (IL-1β mRNA): significantly increased
- IL-1β mRNA at the L5 lumbar spinal cord (IL-1β mRNA; listed as Morphine): 1.92 ± 0.14
- IL-6 mRNA at the L5 lumbar spinal cord (IL-6 mRNA): significantly increased
- IL-6 mRNA at the L5 lumbar spinal cord (IL-6 mRNA; listed as Morphine): 1.85 ± 0.16
- IL-1β protein level at the L5 lumbar spinal cord (IL-1β protein): significantly increased
- IL-1β protein level at the L5 lumbar spinal cord (IL-1β protein; listed as Morphine): 73.5 ± 9.2
- IL-6 protein level at the L5 lumbar spinal cord (IL-6 protein): significantly increased
- IL-6 protein level at the L5 lumbar spinal cord (IL-6 protein; listed as Morphine): 359 ± 62.4
- TNF-α protein level at the L5 lumbar spinal cord (TNF-α protein): not significantly increased
- TNF-α protein level at the L5 lumbar spinal cord (TNF-α protein; listed as Morphine): 36.6 ± 5.6
